Experimental data from publication PMC9322122, “Development of (4-Phenylamino)quinazoline Alkylthiourea Derivatives as Novel NF-κB Inhibitors” (Pharmaceuticals, 2022).
Entries after “also recorded” stand apart in the source; their conditions may differ.

Test system: phospho-IKKα/β
Assay: Western blot phospho-IKKα/β in dTHP-1 cells
Assay type: cell-based, human
Details: 7.5 µM; LPS-stimulated dTHP-1 cells
Method: Cells were lysed in the commercial RIPA Buffer (Thermo Fisher Scientific, Waltham, MA, USA) and then centrifuged at 14,000× g for 20 min. […] Antibodies used in this study were phospho-NF-κB p65 (S468; catalog no. 3039), phospho-NF-κB p65 (S536; catalog no. 3033), phospho-IKKα/β (catalog no. 2697), and IκB (catalog no. 9242) from Cell Signaling Technology (Beverly, MA, USA); GAPDH from ABclonal (catalog no. A10868; Woburn, MA, USA). The labeled signals were determined using an enhanced chemiluminescence system (UVP, Upland, CA, USA). The experiments were performed at least two times in triplicate, providing basically the same results.
The dTHP−1 cells were incubated with DMSO (0.1%), 19 (7.5 µM), or CAPE (10 µM) in medium for 3 h and then stimulated with or without LPS (0.1 µg/mL) for another 30 min. (A) The levels of phospho-NF-κB p65 (S536), phospho-IKKα/β, IκB, and GAPDH were determined by Western blot. The normalized (B) phospho-NF-κB p65 (S536), (C) phospho-IKKα/β, and (D) IκB levels were quantified. All data are expressed as mean ± SEM (n = 3); * p < 0.05 compared with the DMSO + LPS group.

S=C(Nc1ccc2ncnc(Nc3cccc(Cl)c3)c2c1)NC1CCCC1 [Compound 19, 1-(4-((3-Chlorophenyl)amino)quinazolin-6-yl)-3-cyclopentylthiourea]
Activation of IKKα/β (phospho-IKKα/β): had no effects on IKKα/β-IκB signaling; also recorded: neither blocked the activation of IKKα/β
